Read-outs that look alike come from different tables or passages of the source.
Legend:
mGluR1 [1] = target: mGluR1; set-up: method as in PMID 23135321; details: rats; read-out: in vitro affinity; cited from earlier work
human mGluR1s = target: human mGluR1s; set-up: method as in PMID 23135321; details: cited from earlier work
[2] = set-up: method as in earlier work; details: cited from earlier work; for Exposure SUV (0 to 20): AUC of plasma concentration vs. time, 0 to 20 min, data of previous studies; for fp: human plasma; for Brain peak SUV: human
[3] = Brain exposure comparison of five radioligands; type: in vivo, human
Experimental: Another complicating factor is low delivery to brain (i.e., low drug exposure), which may have cause low brain uptake. We compared five different radioligands from previous studies with regard to exposure to brain (Table 3) and measured the area under the curve of plasma concentration vs. time from 0 to 20 min. […] The effective exposure was thus named because only the free concentration of drug can cross the blood–brain barrier. ^11C-LY2428703 had the highest exposure value among the tracers tested. This high exposure was due to the slow wash-out of the tracer from the vascular compartment and to negligible metabolism in plasma, that is, parent radioligand represented 99% of plasma radioactivity even at the end of the 2-h scanning session.

other human mGluRs = test system: other human mGluRs; set-up: method as in PMID 23135321; details: cited from earlier work
mGluR1 [4] = test system: mGluR1; set-up: method as in PMID 23135321; details: PET; cited from earlier work
[5] = test system: ABCB1 (permeability glycoprotein (P-gp)) and ABCG2 (breast cancer resistance protein (BCRP)); set-up: method as in PMID 23135321; details: genetic knockout mice for ABCB1 and ABCG2; cited from earlier work
[6] = cited from earlier work
[7] = fp × AUC0 to 20, comparators from data of refs 22, 19, 23, 24

| SMILES | Exposure SUV (0 to 20) [2] [SUV] | fp [2] [%] | Brain peak SUV [2] [SUV] | further results |
| --- | --- | --- | --- | --- |
| COc1ccc(-c2nsc(NC(=O)[C@@H]3C[C@H]3C)c2C)cc1 [^11C-LY2428703] | – | – | – | Ki (mGluR1 [1]): 0.6 nM; Ki (human mGluR1s; humans, read-out: in vitro affinity): ~2 nM |
| [11CH3]Oc1ccc([C@@H]2CNC(=O)C2)cc1OC1CCCC1 [^11C-( R )-rolipram] | 124.9 | 6.4 | 2 to 2.5 | Effective exposure (E × fp) ([3]; in vivo): 8.0 |
| C[C@@H](N[C@@H]1C[C@H](c2cccc(OC[18F])c2)N(c2ccc(C(F)(F)F)cc2)C1=O)c1ccccc1 [^18F-FMPEP] | 47.8 | 0.63 | 3 to 4 | Effective exposure (E × fp) [3, 7]: 0.30 |
| [11CH3]NC(=O)[C@@H](Cc1ccccc1F)CN1CCC2(CC1)OCCc1cc(F)sc12 [^11C-NOP1A] | 36.7 | 10.1 | 5 to 7 | Effective exposure (E × fp) [3, 7]: 3.7 |
| COc1ccc(-c2nsc(NC(=O)[C@@H]3C[C@H]3C)c2C)cc1 [LY2428703] | – | – | – | affinity for other human mGluRs (other human mGluRs): no significant affinity; signal in rat cerebellum (mGluR1 [4]): large specific and displaceable signal; Ki (human mGluR1s; females, read-out: Ki): 1.4 ± 0.4 nM; Ki (human mGluR1s; males, read-out: Ki): 2.7 ± 0.5 nM; substrate for efflux transporters at the blood–brain barrier [5]: not a substrate |
| CC(C)Nc1cc(-c2csc(N(C)C(=O)c3ccc([18F])cc3)n2)ncn1 [^18F-FITM, reference compound] | – | – | – | LogD [6]: 1.5 |
| N#Cc1cc(F)cc(C#Cc2csc(C[18F])n2)c1 [^18F-SP203] | 37.0 | 5.2 | ~6 | Effective exposure (E × fp) ([3]; in vivo): 1.9 |

From paper PMC3683333, “^11C-LY2428703, a positron emission tomographic radioligand for the metabotropic glutamate receptor 1, is unsuitable for imaging in monkey and human brains” (EJNMMI Research, 2013)
